“And” between values parts separate entries of the source, which are not always exact repeats. Identical values can stand only once.
Assay: photoluminescence quantum yield (fraction); solvent given as SMILES

COc1ccc2c(c1)c1c(c3cc(OC)ccc32)=[N+]2C(=C(c3c(C)cc(C)cc3C)c3cc4c5cc(OC)ccc5c5ccc(OC)cc5c4n3[B-]2(F)F)C=1
photoluminescence quantum yield (in C1CCCCC1): 0.08
photoluminescence quantum yield (in C1CCOC1): 0.001
photoluminescence quantum yield (in CC#N): 0.01
photoluminescence quantum yield (in Cc1ccccc1): 0.001
photoluminescence quantum yield (in ClCCl): 0.001

C=CCNc1ccc2ccc3oc4cc(=O)ccc-4nc3c2c1
photoluminescence quantum yield (in CC#N): 0.03
photoluminescence quantum yield (in CCO): 0.04
photoluminescence quantum yield (in ClCCl): 0.06
photoluminescence quantum yield (in O): 0.007

CC(C)(C)C1CCC(=CS/C=C/c2ccc(/C=C/SC=C3CCC(C(C)(C)C)CC3)cc2)CC1 (stereo unspecified)
photoluminescence quantum yield (in ClCCl): 0.031

N#CC1=CC=CC(C#N)=P1(c1ccccc1)c1ccccc1
photoluminescence quantum yield (in ClC(Cl)Cl): 0.92

N#Cc1nn(-c2ccccc2)nc1N1CCCC1
photoluminescence quantum yield (in CC#N): 0.886

CCNc1cc2c(cc1C)C(c1ccccc1C(=O)O)=C1CCCC(/C=C/C3=[N+](C)c4ccc5ccccc5c4C3(C)C)=C1O2
photoluminescence quantum yield (in CC#N): 0.22
photoluminescence quantum yield (in CCO): 0.34
photoluminescence quantum yield (in CO): 0.33
photoluminescence quantum yield (in ClC(Cl)Cl): 0.48

C(=C\c1ccc(N(c2ccccc2)c2ccccc2)cc1)/c1ccc(-c2ccc(/C=C/c3ccc(N(c4ccccc4)c4ccccc4)cc3)cc2)cc1
photoluminescence quantum yield (in ClCCl): 0.86

CC(=O)O[B-]1(OC(C)=O)OC(/C=C/c2cccc3ccccc23)=CC(/C=C/c2cccc3ccccc23)=[O+]1
photoluminescence quantum yield (in C1CCOC1): 0.75
photoluminescence quantum yield (in CC#N): 0.43
photoluminescence quantum yield (in CC(C)=O): 0.58
photoluminescence quantum yield (in CS(C)=O): 0.38
photoluminescence quantum yield (in Cc1ccccc1): 0.84
photoluminescence quantum yield (in ClC(Cl)Cl): 0.73
photoluminescence quantum yield (in ClCCl): 0.64

Cc1cc(=O)oc2cc3cc(-c4cn(Cc5ccccc5)nn4)ccc3cc12
photoluminescence quantum yield (in CCO): 0.02

CC1(C)CC(/C=C/c2ccc(-n3ccnc3)cc2)=CC(=C(C#N)C#N)C1
photoluminescence quantum yield (in CCO): 0.0001

CCCCOc1ccc(/C=C/C=C/C=C/c2ccc([N+](=O)[O-])cc2)cc1
photoluminescence quantum yield (in CC1CCCCC1): 0.25
photoluminescence quantum yield (in CC#N): 0.014
photoluminescence quantum yield (in Cc1ccccc1): 0.53
photoluminescence quantum yield (in ClCCl): 0.06

N#Cc1ccc(/C2=C3N=C(C(c4ccccc4)=C/3c3ccccc3)/C(c3ccc(C#N)cc3)=c3\[nH]/c(c(-c4ccccc4)c3-c3ccccc3)=C(/c3ccc(C#N)cc3)C3=N/C(=C(/c4ccc(C#N)cc4)c4[nH]c2c(-c2ccccc2)c4-c2ccccc2)C(c2ccccc2)=C3c2ccccc2)cc1
photoluminescence quantum yield (in ClCCl): 0.004

Clc1ccc(-c2nc(-c3ccccc3)c(N(c3ccccc3)c3ccccc3)s2)cc1
photoluminescence quantum yield (in ClC(Cl)Cl): 0.56

COc1cc2c(cc1-c1ccc(C)cc1)Cc1c3c(c4c(c1-2)-c1cc(OC)c(-c2ccc(C)cc2)cc1C4)C(=O)N(CCC(C)C)C3=O
photoluminescence quantum yield (in C1CCOC1): 0.67

c1ccc(N(c2ccccc2)c2ccc(-c3ncc(-c4ccncc4)s3)cc2)cc1
photoluminescence quantum yield (in CO): 0.07

CC1(C)c2ccccc2N(c2ccc(C(=O)c3cc(C(=O)c4ccc(N5c6ccccc6C(C)(C)c6ccccc65)cc4)cc(C(=O)c4ccc(N5c6ccccc6C(C)(C)c6ccccc65)cc4)c3)cc2)c2ccccc21
photoluminescence quantum yield (in Cc1ccccc1): 0.189
photoluminescence quantum yield (in c1ccc2c(c1)c1ccccc1n2-c1ccc(-c2ccc(-n3c4ccccc4c4ccccc43)cc2)cc1): 0.856

F[B-]1(F)OC(/C=C/c2ccccc2)=CC(c2ccccc2)=[O+]1
photoluminescence quantum yield (in ClCCl): 0.02

CC(=O)OCCN1C(=O)c2cccc3c(Oc4ccc(C#N)cc4)ccc(c23)C1=O
photoluminescence quantum yield (in ClC(Cl)Cl): 0.37

N#Cc1cc(/C=C/c2ccc(/C=C/c3ccc(N(c4ccccc4)c4ccccc4)cc3)c(C#N)c2)ccc1/C=C/c1ccc(N(c2ccccc2)c2ccccc2)cc1
photoluminescence quantum yield (in ClCCl): 0.32

CCCCN1C(=O)c2ccc3c4ccc5c6c(ccc(c7ccc(c2c37)C1=O)c64)C(=O)N(CCCC)C5=O
photoluminescence quantum yield (in ClC(Cl)Cl): 0.98

COC(=O)/C=C/C1=CC2=C(c3c(C)cc(C)cc3C)c3cc(/C=C/C(=O)OC)cn3[B-](F)(F)[N+]2=C1
photoluminescence quantum yield (in ClCCl): 0.36

N#Cc1cccc(-c2pc3ccccc3s2)c1 (stereo unspecified)
photoluminescence quantum yield (in CC#N): 0.015

Nc1cccc2c1C(=O)c1ccccc1-2
photoluminescence quantum yield (in C1CCCCC1): 0.031
photoluminescence quantum yield (in CC#N): 0.057
photoluminescence quantum yield (in CCO): 0.068
photoluminescence quantum yield (in c1ccccc1): 0.055

Cc1nc2c(ccc3ccccc32)oc1=O
photoluminescence quantum yield (in c1ccccc1): 0.198

COc1ccc(O)c(-c2[nH]c(=O)n3c2-c2ccccc2C3=O)c1
photoluminescence quantum yield (in CC#N): 0.46
photoluminescence quantum yield (in CO): 0.01
photoluminescence quantum yield (in ClCCl): 0.66

CCN(CC)c1ccc2cc(/C=C(\C#N)c3nc4ccccc4s3)c(=O)oc2c1
photoluminescence quantum yield (in C1COCCO1): 0.0043
photoluminescence quantum yield (in CC#N): 0.0027
photoluminescence quantum yield (in CCO): 0.0048
photoluminescence quantum yield (in CCOC(C)=O): 0.0035
photoluminescence quantum yield (in CN(C)C=O): 0.0122
photoluminescence quantum yield (in CO): 0.0061
photoluminescence quantum yield (in CS(C)=O): 0.0104
photoluminescence quantum yield (in Cc1ccccc1): 0.0036
photoluminescence quantum yield (in ClCCl): 0.0033

COc1ccc(-c2nc(-c3ccc(C(=O)O)cc3)[nH]c2-c2ccc(OC)cc2)cc1
photoluminescence quantum yield (in CO): 0.42

CN1C(=O)/C(=C/c2ccncc2)N=C1/C=C/c1ccccc1
photoluminescence quantum yield (in C1COCCO1): 0.029
photoluminescence quantum yield (in CC#N): 0.011
photoluminescence quantum yield (in CCO): 0.099
photoluminescence quantum yield (in CCOC(C)=O): 0.017
photoluminescence quantum yield (in O): 0.004

CC(C)CCC[C@@H](C)[C@H]1CC[C@H]2[C@@H]3CC=C4C[C@@H](OC(=O)Oc5cc(/C=C/c6ccc(N(C)C)cc6)ccc5[N+](=O)[O-])CC[C@]4(C)[C@H]3CC[C@]12C
photoluminescence quantum yield (in C1CCCCC1): 0.29
photoluminescence quantum yield (in C1COCCO1): 0.09
photoluminescence quantum yield (in CCCCCCC): 0.29
photoluminescence quantum yield (in Cc1ccccc1): 0.18

Cc1ccc(C)c(C)c1
photoluminescence quantum yield (in C1CCCCC1): 0.41

N#Cc1ccc(/C=C/c2ccc(C=C(c3ccccc3)c3ccccc3)cc2)cc1
photoluminescence quantum yield (in C1CCOC1): 0.166

B1C=Cc2ccc3ccccc3c2N1
photoluminescence quantum yield (in C1CCCCC1): 0.61

CC(=O)c1nc(-c2ccc(N(c3ccccc3)c3ccccc3)cc2)oc1C
photoluminescence quantum yield (in CC#N): 0.486
photoluminescence quantum yield (in CCO): 0.264
photoluminescence quantum yield (in CCOC(C)=O): 0.659
photoluminescence quantum yield (in CCOCC): 0.886
photoluminescence quantum yield (in ClCCl): 0.972

COC(=O)c1cc(=O)n(C)c2cc(-c3ccc4c(c3)OCCO4)sc12
photoluminescence quantum yield (in CC#N): 0.68
photoluminescence quantum yield (in ClCCl): 0.83

CNc1ccc2c(c1)C(=O)c1ccccc1-2
photoluminescence quantum yield (in C1CCCCC1): 0.0073
photoluminescence quantum yield (in c1ccccc1): 0.001

COc1ccccc1C1=C2C(C)=CC(C)=[N+]2[B-](F)(F)n2c(C)cc(C)c21
photoluminescence quantum yield (in C1CCOC1): 0.87
photoluminescence quantum yield (in CC#N): 0.57
photoluminescence quantum yield (in CC(=O)C(C)(C)C): 0.74
photoluminescence quantum yield (in CC(C)=O): 0.78
photoluminescence quantum yield (in CCCCCC): 0.98
photoluminescence quantum yield (in CCOC(C)=O): 0.76
photoluminescence quantum yield (in CO): 0.69

CCCCCCCCOc1ccc(C2=C(c3ccc(OCCCCCCCC)cc3)C(C)(C)c3ccccc32)cc1
photoluminescence quantum yield (in C1CCCCC1): 0.11

CCOC(=O)c1ccc(/C=C/C2=[N+]3C(=C(c4ccccc4)c4ccc(/C=C/c5ccc(C(=O)OCC)o5)n4[B-]3(F)F)C=C2)o1
photoluminescence quantum yield (in ClC(Cl)Cl): 0.29

COc1nc(Cl)nc(Nc2ccc3c4c(cccc24)C(=O)c2ccccc2-3)n1
photoluminescence quantum yield (in CC#N): 0.52
photoluminescence quantum yield (in CC(C)=O): 0.54
photoluminescence quantum yield (in CC(C)O): 0.5
photoluminescence quantum yield (in CCCCOCCCC): 0.05
photoluminescence quantum yield (in CCOC(C)=O): 0.34
photoluminescence quantum yield (in CCOCC): 0.12
photoluminescence quantum yield (in CO): 0.33
photoluminescence quantum yield (in Cc1ccccc1): 0.27
photoluminescence quantum yield (in Clc1ccccc1): 0.5
photoluminescence quantum yield (in N#Cc1ccccc1): 0.58
photoluminescence quantum yield (in O=C1CCCCC1): 0.51

C#CCNC1=C2C=CC=[N+]2[B-](F)(F)n2cccc21
photoluminescence quantum yield (in C1CCCCC1): 0.93 and 0.999
photoluminescence quantum yield (in CC(C)=O): 0.86
photoluminescence quantum yield (in CCCCO): 0.79
photoluminescence quantum yield (in CCCO): 0.741
photoluminescence quantum yield (in CCO): 0.66 and 0.6
photoluminescence quantum yield (in CCOC(C)=O): 0.94
photoluminescence quantum yield (in CN(C)C=O): 0.442
photoluminescence quantum yield (in CO): 0.52
photoluminescence quantum yield (in CS(C)=O): 0.278
photoluminescence quantum yield (in Cc1ccccc1): 0.92
photoluminescence quantum yield (in ClC(Cl)Cl): 0.829
photoluminescence quantum yield (in OCC(F)(F)F): 0.88
photoluminescence quantum yield (in c1ccccc1): 0.924

CC(C)(C)c1ccc(-c2cnc3cccc(-c4ccccc4)n23)cc1
photoluminescence quantum yield (in ClCCl): 0.31

c1ccc(-n2c(-c3cccc4ccccc34)nc3c4ccccc4c4ccccc4c32)cc1
photoluminescence quantum yield (in Cc1ccccc1): 0.79

CC(C)(C)c1ccc2c(c1)c1cc(C(C)(C)C)ccc1n2-c1ccc(C#Cc2ccc3c4ccc(C#Cc5ccc(C=C(C#N)C#N)cc5)cc4n(-c4ccc(C(F)(F)F)cc4)c3c2)cc1
photoluminescence quantum yield (in ClCCl): 0.12

CN(C)c1cccc2c1C(=O)c1ccccc1-2
photoluminescence quantum yield (in C1CCCCC1): 0.0016
photoluminescence quantum yield (in CC#N): 0.0027
photoluminescence quantum yield (in CCO): 0.004
photoluminescence quantum yield (in c1ccccc1): 0.0024

COC(=O)c1cc(=O)n(C)c2cc(-c3ccc(OC)cc3)sc12
photoluminescence quantum yield (in C1CCOC1): 0.99
photoluminescence quantum yield (in CC#N): 0.77
photoluminescence quantum yield (in CCO): 0.99
photoluminescence quantum yield (in CN(C)C=O): 0.99
photoluminescence quantum yield (in CO): 0.99
photoluminescence quantum yield (in CS(C)=O): 0.99
photoluminescence quantum yield (in Cc1ccccc1): 0.98
photoluminescence quantum yield (in ClC(Cl)Cl): 0.95
photoluminescence quantum yield (in ClCCl): 0.9

CC[B-]1(CC)c2cccc3cc4ccccc4c(c23)-c2cccc(C)[n+]21
photoluminescence quantum yield (in ClCCl): 0.202

COc1ccc(-c2cn3ccc[n+]3[n-]2)cc1
photoluminescence quantum yield (in ClCCl): 0.062

CCCCCCC(CCCCCC)N1C(=O)c2cccc3c(-c4ccc(N(C)C)cc4)ccc(c23)C1=O
photoluminescence quantum yield (in CCCCCC): 0.7
photoluminescence quantum yield (in CCCCCCCCCCCCCC): 0.73
photoluminescence quantum yield (in CCCCCCCCCCCO): 0.14
photoluminescence quantum yield (in CCCCO): 0.013
photoluminescence quantum yield (in CN(C)C=O): 0.0037
photoluminescence quantum yield (in Cc1ccccc1): 0.65
photoluminescence quantum yield (in ClC(Cl)Cl): 0.64

CC(C)(C)c1cc2cc(N(c3ccccc3)c3ccccc3)c3cc(C(C)(C)C)cc4cc(N(c5ccccc5)c5ccccc5)c(c1)c2c43
photoluminescence quantum yield (in CCCCCC): 0.28

CCCCCCCCn1c(=O)c2cc3cc4cc5c(=O)n(CCCCCCCC)c(=O)c5cc4c(-c4ccc(N(c5ccccc5)c5ccccc5)cc4)c3cc2c1=O
photoluminescence quantum yield (in ClC(Cl)Cl): 0.04

From the Deep4Chem optical property database
